Reference: patent publication US20050038015A1, “Partial dopamine-D 2 receptor agonist plus serotonin and/oder noradrenaline inhibitor activity” (priority 2002, published 2005)
Like-named read-outs stand apart in the source and are kept apart here.

What was measured:
[1] = molecular target: human dopamine D2,L receptors (Homo sapiens, UniProt P14416); experiment: Inhibition of forskolin-induced [3H]-cAMP accumulation in CHO-K1 cells
[2] = tested on: dialysate dopamine in the nucleus accumbens; experiment: In vivo microdialysis, dialysate dopamine; set-up: species or system rat; conditions: read-out: [dopamine] ED75
Procedure: (§1) Microdialysis allows an insight into changes in neurotransmitters and their metabolites in the brain extracellular space in discrete brain regions in awake freely moving animals. […] The in vivo effects of the (mixtures of) compounds of the invention on dopamine, serotonin and noradrenalin levels were determined by microdialysis according to the protocol given below:
(§2) Dopamine and Serotonin Measurements by In Vivo Microdialysis
(§3) Surgery. […] Antibacterial agents and analgesics were administered prior to (Baytril (150 μl/rat i.m.)) and after (Temgesic (0.005-0.01 mg/kg i.m. non-diluted/rat)) surgery. […] In other animals, the skull is exposed and a 1 mm bore-hole is drilled through the bone above the prefrontal cortex (co-ordinates from bregma (mm): anterior-posterior +3.2, mediolateral 0.6 and dorsoventral −1.5 at a 0° angle (from dura)) in those animals where determination of dialysate noradrenaline levels is required. Smaller bore holes are made and three screws are inserted within the skull. The intracerebral guide cannula (CMA, Carnegie) is lowered through the hole until the tip is immediately above the nucleus accumbens or prefrontal cortex. The guide together with the screws are cemented onto the bone with dental cement and the surrounding skin sutured. Animals are allowed to recover at least six days prior to microdialysis experimentation.
(§4) Microdialysis experimentation. On the day of the experiment microdialysis probes (CMA 12, 0.5 mm outer diameter, Stockholm, Sweden) are inserted through the guide cannula into the nucleus accumbens (2 mm membrane length) or prefrontal cortex (4 mm membrane length). The Inlet of the probe is connected with low volume tubing (F.E.B-tubing, 1.2 μl/10 cm, Carnegie) via a liquid-swivel (dual channel; Instech, UK) on a counterbalanced arm, to a syringe-pump (Harvard, 10 channel). […] The outlet of the probe is connected with low volume tubing via the liquid swivel to a CMA 140 fraction collector. The tubing is supported by a stainless steel wire which leads from the swivel down to a clip, which fits to a collar around the neck of an animal. […] Samples are collected at a flow rate of 2 μl/min at 20 min intervals (40 μl volume) in vials containing 50 μl of a HCOOH/cysteine solution (0.02M/0.2 w/v %) to prevent oxidation of the compounds. Following a baseline period of 5 samples, drugs are administered systemically and at least a further 8 samples collected. All samples were stored post-collection on dry ice and frozen at […] prior to analysis by high-performance liquid chromatography (HPLC) coupled to electrochemical detection described below.
(§5) Analysis of dialysate dopamine and serotonin. […] The final pH was adjusted to 4.9 with 1N NaOH. Dopamine and serotonin are electrochemically detected with an EG&G (model 400, Princeton Applied Research) controller equipped with a glassy carbon working electrode (VT-03; Antec, Leiden, the Netherlands). The potential is set at 600 mV versus an Ag/AgCl reference electrode. The output is recorded on a computer equipped with Hyperchem™ (Hewlett-Packard Inc.) which measures peak height values. Calculations (μg/20 min) are made using peak height values of analysed standard solutions containing known amounts of dopamine and serotonin. Analysis of dialysate dopamine and noradrenaline. […] The basal mobile phase consists of: 50 mM NaAc, and 0.27 mM EDTA. The final concentration of 1-octanesulfonic acid (NOS) and methanol, as well as the final pH (adjusted with HAc), vary with the different brain areas under examination. The compounds are electrochemically detected with an EG&G (model 400, Princeton Applied Research) controller equipped with a glassy carbon working electrode (VT-03; Antec, Leiden, the Netherlands). The potential is set at 450 mV versus a Hyref reference electrode.

[3] = molecular target: noradrenaline reuptake sites (Rattus norvegicus, UniProt Q9WTR4); experiment: In vitro functional inhibition of [3H]-noradrenalin reuptake in rat hypothalamus synaptosomes; format: biochemical
Procedure: (§6) The in vitro functional activity at dopamine-D2 receptors, Including the intrinsic activity (ε) of the compounds which can be used according to the invention as well as relevant reference compounds was measured by their ability to inhibit forskolin-induced [^3H]cAMP accumulation. Serotonin and noradrenaline reuptake inhibitory activity was measured In rat brain synaptosomes.
Synaptosomes were pre-incubated in absence or presence of the test compound for 10 min at 37° C., in a medium containing the monoamine oxidase inhibitor pargyline (7 μM). Subsequently, the synaptosomes were exposed to [^3H]-noradrenaline ([…] final concentration) for 15 min.
(§7) [^3H]-noradrenaline uptake was stopped by filtration with a harvester and the non-incorporated radioactivity was removed by an extensive washing programme. The filter plates with synaptosomes were dehydrated and the amount of [^3H]-noradrenaline present was determined by Betaplate liquid scintillation counting.

[4] = tested on: dialysate serotonin in the nucleus accumbens; experiment: In vivo microdialysis, dialysate serotonin; conditions: awake freely moving rat; for ED150: p.o. or i.p. (italic); for [serotonin] ED75 (footnote 1): footnote 1: ED75 instead of ED150
Procedure: as §1, §2, §3, §4, §5

[5] = molecular target: T1, serotonin reuptake sites (Rattus norvegicus, UniProt P31652); experiment: In vitro functional inhibition of [3H]-serotonin reuptake in rat brain synaptosomes; format: biochemical
T1 construct: the cerebral hemispheres were rapidly removed and a P2-synaptosomal fraction was prepared; from tissue; host or cells: rat (Wistar) cerebral hemispheres, P2-synaptosomal fraction
Procedure: as §6
In Vitro Functional Inhibition of [^3H]-serotonin Reuptake
Synaptosomes were pre-incubated in absence or presence of the test compound for 15 min at 37° C., in a medium containing the monoamine oxidase inhibitor pargyline (7 μM). Subsequently, the synaptosomes were exposed to [^3H]-serotonin ([…] final concentration) for 10 min.
as §7, with “[^3H]-serotonine uptake” for “[^3H]-noradrenaline uptake”, “of [^3H]-serotonin” for “of [^3H]-noradrenaline”

[6] = tested on: noradrenaline levels in the prefrontal cortex; experiment: In vivo microdialysis, dialysate noradrenaline; conditions: awake freely moving rat, p.o. or i.p. (italic)
Procedure: as §1, §2, §3
Microdialysis experimentation. On the day of the experiment microdialysis probes (CMA 12, 0.5 mm outer diameter, Stockholm, Sweden) are inserted through the guide cannula into the nucleus accumbens (2 mm membrane length) or prefrontal cortex (4 mm membrane length). The Inlet of the probe is connected with low volume tubing (F.E.B-tubing, 1.2 μl/10 cm, Carnegie) via a liquid-swivel (dual channel; Instech, UK) on a counterbalanced arm, to a syringe-pump (Harvard, 10 channel). […] The outlet of the probe is connected with low volume tubing via the liquid swivel to a CMA 140 fraction collector. […]
Analysis of dialysate dopamine and serotonin. […] Dopamine and serotonin are electrochemically detected with an EG&G (model 400, Princeton Applied Research) controller equipped with a glassy carbon working electrode (VT-03; Antec, Leiden, the Netherlands). […] The output is recorded on a computer equipped with Hyperchem™ (Hewlett-Packard Inc.) which measures peak height values. Calculations (μg/20 min) are made using peak height values of analysed standard solutions containing known amounts of dopamine and serotonin. […] The compounds are electrochemically detected with an EG&G (model 400, Princeton Applied Research) controller equipped with a glassy carbon working electrode (VT-03; Antec, Leiden, the Netherlands). […]

[7] = nucleus accumbens, awake freely moving rat, p.o. or i.p. (italic)
[8] = fraction of full agonism (ε = 1, quinpirole)
[9] = rat brain synaptosomes, read-out: 5-HT uptake pIC50 (converted)

T1 sequence (P31652 whole entry): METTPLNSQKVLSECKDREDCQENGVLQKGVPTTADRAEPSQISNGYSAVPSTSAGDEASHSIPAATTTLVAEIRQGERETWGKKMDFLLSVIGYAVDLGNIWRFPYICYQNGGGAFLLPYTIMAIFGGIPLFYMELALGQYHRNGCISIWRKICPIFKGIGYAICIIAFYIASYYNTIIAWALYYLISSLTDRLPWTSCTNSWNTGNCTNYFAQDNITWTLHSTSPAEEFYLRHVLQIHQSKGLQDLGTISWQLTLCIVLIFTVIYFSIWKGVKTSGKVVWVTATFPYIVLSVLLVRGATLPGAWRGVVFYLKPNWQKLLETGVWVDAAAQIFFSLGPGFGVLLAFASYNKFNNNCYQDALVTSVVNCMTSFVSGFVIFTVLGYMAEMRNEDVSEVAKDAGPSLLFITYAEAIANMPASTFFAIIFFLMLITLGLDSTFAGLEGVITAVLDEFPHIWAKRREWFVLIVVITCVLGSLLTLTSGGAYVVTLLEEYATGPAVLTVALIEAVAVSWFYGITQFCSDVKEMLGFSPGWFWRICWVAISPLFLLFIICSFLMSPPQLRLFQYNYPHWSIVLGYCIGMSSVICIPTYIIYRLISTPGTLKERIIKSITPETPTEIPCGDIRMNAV
human dopamine D2,L receptors, sequence (P14416 whole entry): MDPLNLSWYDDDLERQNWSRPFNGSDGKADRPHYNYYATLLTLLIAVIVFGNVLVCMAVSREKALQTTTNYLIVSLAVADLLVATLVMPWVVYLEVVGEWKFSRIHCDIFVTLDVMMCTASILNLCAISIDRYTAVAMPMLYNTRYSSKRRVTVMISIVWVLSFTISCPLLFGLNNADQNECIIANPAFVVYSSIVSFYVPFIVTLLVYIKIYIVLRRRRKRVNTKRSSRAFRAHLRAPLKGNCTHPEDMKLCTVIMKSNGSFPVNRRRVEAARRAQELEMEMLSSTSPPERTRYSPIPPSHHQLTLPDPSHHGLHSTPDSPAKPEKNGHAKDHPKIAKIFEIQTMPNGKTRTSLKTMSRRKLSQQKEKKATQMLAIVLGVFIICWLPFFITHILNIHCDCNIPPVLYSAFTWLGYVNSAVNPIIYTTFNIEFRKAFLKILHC

| Structure (SMILES) | EC50 [1] | cAMP accum. ε (intrinsic activity) [1] | ED75 [2, 7] | ED150 [4] | cAMP accum. ε (intrinsic activity) [1, 8] | NA uptake pIC50 ([3]; rat hypothalamus synaptosomes) | IC50 [5, 9] | also measured |
| --- | --- | --- | --- | --- | --- | --- | --- | --- |
| CCN(CC)C(=O)C1(c2ccccc2)CC1CN (stereo not drawn) [milnacipran] | > 1000 nM | 0.21 | > 30 mg/kg | 5.5 mg/kg |  |  |  | NA uptake pIC50 [3]: 5.5; IC50 [5]: 251 nM; [noradren] ED150 [6]: 2.41 mg/kg |
| C=CCN1CCc2nc(N)sc2CC1 [talipexole] | 39.8 nM | 1.00 | < 0.1 mg/kg | > 10 mg/kg |  |  |  | agonist properties at human dopamine D2 receptors (FIG. 2 upper panel) [1]: full agonists; NA uptake pIC50 [3]: <5.0; IC50 [5]: > 10000 nM |
| O=c1[nH]c2cccc(N3CCN(CCCc4c[nH]c5ccccc45)CC3)c2o1 [example 1e] | < 1 nM |  |  |  | 0.60 | <5.0 | 251 nM |  |
| O=c1[nH]c2cccc(N3CCN(CCCc4c[nH]c5ccc(F)cc45)CC3)c2o1 [example 1c] | 158 nM |  | 3.92 mg/kg | 14.8 mg/kg | 0.53 | <5.0 | 25.1 nM |  |
| CN1CCN(c2cccc3[nH]c(=O)oc23)CC1 [SLV 308] | 31.6 nM |  | 0.04 mg/kg |  |  | <5.0 | > 10000 nM | EC50 ([1]; pEC50 (inhibition of cAMP formation)): 10 nM; [serotonin] ED75 (footnote 1) [4]: 0.45^1 mg/kg; [noradren] ED150 [6]: 0.53 mg/kg |
| CCCN1CCC[C@@H]2Cc3n[nH]cc3C[C@H]21 [quinpirole] |  |  | 0.04 mg/kg | > 3 mg/kg |  |  |  |  |
| O=c1[nH]c2cccc(N3CCN(Cc4cccc(-c5ccccc5)c4)CC3)c2o1 [bifeprunox] | 15.8 nM | 0.20 |  |  |  | 4.6 | 15800 nM | ED75 ([2]; Rattus norvegicus): > 10 mg/kg; [serotonin] ED75 (footnote 1) [4]: >10^1 mg/kg |
| CNCCCN1c2ccccc2CCc2ccccc21 [DMI] | > 1000 nM | 0.12 | > 3 mg/kg | > 3 mg/kg |  |  |  | [noradren] ED150 [6]: 1.64 mg/kg |
| CCOc1ccccc1OC(c1ccccc1)C1CNCCO1 (stereo not drawn) [reboxetine] |  |  | > 3 mg/kg | > 3 mg/kg |  |  |  | [noradren] ED150 [6]: <3.0 mg/kg |
| Cc1cccc2c(CCCN3CCN(c4cccc5[nH]c(=O)oc45)CC3)c[nH]c12 [example 1d] | < 1 nM |  |  |  | 0.56 | <5.0 | 398 nM |  |
| CCN(CC)C(=O)N[C@H]1C[C@@H]2c3cccc4[nH]cc(c34)C[C@H]2N(C)C1 [terguride] | 0.398 nM |  | > 10 mg/kg | > 10 mg/kg | 0.38 | <5.0 | > 10000 nM | agonist properties at human dopamine D2 receptors (FIG. 2 upper panel) ([1]; agonist mode): partial agonists; antagonist effects against the reference agonist quinpirole (FIG. 2 lower panel) ([1]; antagonist mode versus quinpirole): partial antagonists |
| O=c1[nH]c2cccc(N3CCN(CCCc4cn5c6c(cc(F)cc46)CCC5)CC3)c2o1 [example 1b] |  |  |  |  | 0.27 | 5.2 | > 10000 nM |  |
| COCCCC/C(=N\OCCN)c1ccc(C(F)(F)F)cc1 [fluvoxamine] | > 1000 nM |  |  |  | 0.10 | 5.3 |  |  |
| Fc1ccc([C@@H]2CCNC[C@H]2COc2ccc3c(c2)OCO3)cc1 [paroxetine] | > 1000 nM | 0.36 | > 10 mg/kg | < 10 mg/kg |  |  |  | NA uptake pIC50 [3]: <5.0 |
| CCCN1CCC[C@@H](c2cccc(O)c2)C1 [preclamol] |  |  | 14.5 mg/kg | > 30 mg/kg | 0.36 | 5.3 | > 10000 nM |  |
| Cn1cc(CCCN2CCN(c3cccc4[nH]c(=O)oc34)CC2)c2cc(F)ccc21 [example 1a] | > 1000 nM |  | 8.14 mg/kg | 2.52 mg/kg | 0.27 | <5.0 | 126 nM |  |
